# Assay results: the Bradley open melting point set (2014)
# Counter-ions that a name gives are not always drawn.
row,melting point,SMILES
1,67 °C,N#CCC(=O)O [cyanoacetic acid]
2,170 °C,CC(=O)Nc1ccc(O)cc1 [acetaminophen] [listing 1 of 2 here]
3,75 °C,CN(C)c1ccc(C=O)cc1 [p-dimethylaminobenzaldehyde]
4,173 °C,"O=C(O)/C(=C/c1ccccc1)c1ccccc1 [(2E)-2,3-Diphenylacrylic acid]"
5,-4 °C,CNC=O [N-methylformamide]
6,168 °C,"Brc1ccc(-c2cccc(Br)n2)cn1 [6,6'-dibromo-2,3'-bipyridine]"
7,166 °C,"Cc1ccc(C(=O)O)cc1C [3,4-dimethylbenzoic acid]"
8,103 °C,CC(COc1ccccc1)NC(C)C(O)c1ccc(O)cc1 (stereo unspecified) [isoxsuprine]
9,-100 °C,CCCCCOC(C)=O [amyl_acetate]
10,188 °C,"COc1ccc(C=CC(=O)c2ccc(O)cc2)cc1 [2-Propen-1-one, 1-(4-hydroxyphenyl)-3-(4-methoxyphenyl)-]"
11,-11 °C,CCOC(=O)/C=CC(=O)OCC [diethyl maleate]
12,108 °C,Cc1c(N(C)C)c(=O)n(-c2ccccc2)n1C [aminopyrine]
13,159 °C,COc1ccc(/N=N/c2sc(CC#N)nc2C)cc1
14,130 °C,N#Cc1ccc2cc[nH]c2c1 [indole-6-carbonitrile]
15,5 °C,Cc1cccc(-c2ccccc2)c1 [3-methylbiphenyl]
16,256 °C,O=C(O)c1ccc(Br)cc1 [4-bromobenzoic acid]
17,141 °C,CC1=CCC2C3CCC4CC(=O)CCC4(C)C3CCC12C (stereo unspecified) [17-methylandrost-16-en-3-one]
18,194 °C,Cc1cc(C(O)=NCC(=N)O)c(C)n1-c1ccc(F)cc1 [OSM-S-19]
19,148 °C,"NC(=O)c1c(F)c(F)c(F)c(F)c1F [2,3,4,5,6-pentafluorobenzamide]"
20,214 °C,NC(=O)NCCC[C@H](N)C(=O)O [L-Citrulline]
21,80 °C,"OCC(O)COc1ccc(Cl)cc1 (stereo unspecified) [3-(4-chlorophenoxy)-1,2-propanediol]"
22,92 °C,Nc1ccc(F)cc1[N+](=O)[O-] [4-fluoro-2-nitroaniline]
23,119 °C,COC1=C(OC)/C(=C/C2CCC=CC23OC(=O)C(OC)=C3OC)OC1=O (stereo unspecified)
24,-7 °C,"CC(C)c1cc(C(C)C)cc(C(C)C)c1 [1,3,5-triisopropylbenzene]"
25,127 °C,"OB(O)c1c(F)cc(F)c(F)c1F [2,3,4,6-tetrafluorobenzeneboronic acid]"
26,44 °C,"CC(O)CCc1ccc(CCC(C)O)cc1 (stereo unspecified) [4,4'-benzene-1,4-diyldibutan-2-ol]"
27,-5 °C,CCCCCCCCCCCc1ccccc1 [Undecylbenzene]
28,97 °C,N#CC1(O)CCN(Cc2ccccc2)CC1 [1-benzyl-4-cyano-4-hydroxypiperidine]

row,melting point,SMILES
1,137 °C,COc1ccc(/C=C/c2ccccc2)cc1 [4-methoxystilbene]
2,84 °C,Nc1ccc(Oc2ccccc2)cc1 [4-phenoxyaniline]
3,32 °C,"COc1cccc(Cl)c1Cl [2,3-dichloroanisole]"
4,104 °C,OB(O)c1ccccc1F [2-fluorobenzeneboronic acid]
5,-53 °C,Cc1ccc(C(C)(C)C)cc1 [1-methyl-4-tert-butylbenzene]
6,4 °C,"O=[N+]([O-])c1c(F)cc(F)cc1F [1,3,5-trifluoro-2-nitrobenzene]"
7,71.5 °C,Cc1cc(/C=C2\S/C(=N\c3ccccc3)N(C3CCCC3)C2=O)c(C)n1-c1ccc(C(F)(F)F)cc1 [OSM-S-54]
8,217 °C,O=C(O)/C=C/c1ccccc1O [trans-2-hydroxycinnamic acid]
9,123 °C,CC1=NN(CN2CCCCC2)C(=O)/C1=N\Nc1ccc(Cl)cc1Cl
10,77 °C,CCOC(=O)/C=C/c1ccccc1N [Ethyl (2E)-3-(2-aminophenyl)acrylate]
11,-34 °C,CCCCB(CCCC)CCCC [tri-n-butylborane]
12,240 °C,O=C\1\C=C/[C@]4(/C(=C/1)CC[C@@H]2[C@@H]4[C@@H](O)C[C@@]3([C@@](O)(C(=O)CO)CC[C@@H]23)C)C [prednisolone]
13,-48 °C,CCCCCCCI [1-iodoheptane]
14,169 °C,CC(=O)Nc1ccc(O)cc1 [acetaminophen] [listing 2 of 2 here]
15,54 °C,"CCC(C)(O)C#CC(C)(O)CC (stereo unspecified) [3,6-dimethyl-4-octyn-3,6-diol]"
16,-28 °C,CCc1ccccc1O [2-Ethylphenol]
17,160 °C,CCOc1ccc(NC(=O)CC(C)O)cc1 (stereo unspecified) [bucetin]
18,-118 °C,"CC[C@@H]1CCC[C@@H]1CC [cis-1,2-diethylcyclopentane]"
19,116 °C,O=C1CC(C(=O)O)c2ccccc21 (stereo unspecified) [3-oxoindane-1-carboxylic acid]
20,164 °C,COc1cc(/C=C/C(=O)NCCc2ccc(OCc3ccccc3)c(OC)c2)ccc1OCc1ccccc1
21,-21 °C,"c1ccc(CCCc2ccccc2)cc1 [1,3-diphenylpropane]"
22,184 °C,CC1=C(CC(=O)O)c2cc(F)ccc2/C1=C\c1ccc(S(C)=O)cc1 (stereo unspecified) [sulindac]
23,202 °C,Nc1ccc(/C=C/c2ccc([N+](=O)[O-])cc2)c([N+](=O)[O-])c1 [3-nitro-4-[(E)-2-(4-nitrophenyl)ethenyl]aniline]
24,-88 °C,C/C=C/CCCCC [trans-2-octene]
25,68 °C,CCCCc1ccc(C(=O)Oc2ccc(C#N)cc2)cc1 [4-cyanophenyl 4-n-butylbenzoate]
26,-6 °C,"Cc1cccc(C)n1 [2,6-Dimethylpyridine]"
27,79 °C,O=C1c2ccccc2C(=O)N1CCCCBr [N-(4-bromobutyl)phthalimide]

row,SMILES,melting point
1,"Cc1cccc(N)c1C [2,3-dimethylaniline]",3 °C
2,"N#Cc1cc(C#N)c(C#N)cc1C#N [Benzene-1,2,4,5-tetracarbonitrile]",265 °C
3,NNc1c(F)c(F)c(F)c(F)c1F [pentafluorophenylhydrazine],76 °C
4,ClC1=C(Cl)[C@]2(Cl)C3C(Cl)C(Cl)CC3[C@@]1(Cl)C2(Cl)Cl (stereo partly specified),106 °C
5,O=Cc1ccc(Oc2ccccc2)cc1 [4-phenoxybenzaldehyde],25 °C
6,NNC=O [formic acid hydrazide],57 °C
7,O=C(O)c1ccccc1C(=O)Nc1cccc2ccccc12 [2-(1-Naphthylcarbamoyl)benzoic acid],203 °C
8,"Nc1ccc(Cl)c(Cl)c1 [3,4-dichloroaniline]",72 °C
9,C[C@@H]1O[C@@H](O[C@H]2C[C@@H](O)[C@]3(CO)[C@H]4[C@H](O)C[C@]5(C)[C@@H](C6=CC(=O)OC6)CC[C@]5(O)[C@@H]4CC[C@]3(O)C2)[C@H](O)[C@H](O)[C@H]1O [Ouabain],200 °C
10,BrCc1nc2ccccc2s1 [2-(bromomethyl)benzothiazole],48 °C
11,Nc1ccc(Cl)cc1C(=O)c1ccccc1 [2-amino-5-chlorobenzophenone],98 °C
12,N#CCc1ccc(CC#N)cc1 [p-Xylylene dicyanide],96 °C
13,CC(=O)CCC(C)=O [acetonylacetone],-6 °C
14,CCCCCBr [1-bromopentane],-95 °C
15,FC(F)(F)c1ccccc1CBr [2-(trifluoromethyl)benzyl bromide],29 °C
16,"Clc1ccc(Cl)c(Cl)c1 [1,2,4-Trichlorobenzene]",17 °C
